Reference: patent US20240287076A1, “COMPOUNDS FOR TARGETING DEGRADATION OF BRUTON'S TYROSINE KINASE” (BIOGEN MA INC., priority 2021, published 2024)

These compounds were tested against T1, BTK (Homo sapiens, UniProt Q06187) (assay: BTK degradation assay using the HiBiT Method (Nano-Glo HiBiT Lytic Assay, GM01501.3 cells)). Conditions: HiBiT Degradation on GM01501.3 BTK @ 6 hours.
T1 construct: The GM01501.3 cell line endogenously expresses BTK with a HiBiT fusion tag via CRISPR knock-in at its C-terminal region; endogenous in cells; host or cells: GM01501.3 (GM01501 cells engineered by CRISPR knock-in of HiBiT at the BTK locus)
Format: cell-based
Method: Selected compounds were tested in a BTK degradation assay using the HiBiT Method. Park Memorial Institute (RPM1) 1640 Medium with phenol red, L-Glutamine, Sodium Pyruvate, and fetal bovine serum (FBS) were purchased from Gibco (Grand Island, NY, USA). Nano-Glo® HiBiT Lytic Assay System was purchased from Promega (Madison, WI, USA). GM01501 cells were obtained from the NIGMS Human Genetic Cell Repository at the Coriell Institute for Medical Research. The GM01501.3 cell line endogenously expresses BTK with a HiBiT fusion tag via CRISPR knock-in at its C-terminal region. It was engineered by electroporation with the Neon Transfection System (Themo Fisher Scientific), according to manufacturer indications. Electroporation conditions: 1 pulse of 1,350 V for 30 ms for 0.5×10_6 cells. Cell culture flasks and 384-well microplates were acquired from VWR (Radnor, PA, USA). BTK degradation was evaluated by quantification of luminescent signal using Nano-Glo® HiBiT Lytic Assay kit. Test compounds were added to the 384-well plate from a top concentration of 10 μM with 11 points, half log titration in duplicates. GM01501.3 cells were added into 384-well plates at a cell density of 10,000 cells per well in a total volume of 30 μl. The plates were kept at 37° C. with 5% CO2 for 6 hours. Negative control wells included cells treated with DMSO only and positive control wells included only growing media, without Nano-Glo® HiBiT Lytic reagent. After a 6-hour incubation, Nano-Glo® HiBiT Lytic Assay reagent was added to the cells following manufacturer indications. Luminescence was acquired on EnVision™ Multilabel Reader (PerkinElmer, Santa Clara, CA, USA). […] “++++” represents a DC50 value of less than 100 nM. “+++” represents a DC50 value of 100 nM-500 nM. “++” represents a DC50 value of 500 nM-1000 nM. “+” represents a DC50 value of greater than 1000 nM.

T1 sequence (Q06187 whole entry, the tested form may be a part): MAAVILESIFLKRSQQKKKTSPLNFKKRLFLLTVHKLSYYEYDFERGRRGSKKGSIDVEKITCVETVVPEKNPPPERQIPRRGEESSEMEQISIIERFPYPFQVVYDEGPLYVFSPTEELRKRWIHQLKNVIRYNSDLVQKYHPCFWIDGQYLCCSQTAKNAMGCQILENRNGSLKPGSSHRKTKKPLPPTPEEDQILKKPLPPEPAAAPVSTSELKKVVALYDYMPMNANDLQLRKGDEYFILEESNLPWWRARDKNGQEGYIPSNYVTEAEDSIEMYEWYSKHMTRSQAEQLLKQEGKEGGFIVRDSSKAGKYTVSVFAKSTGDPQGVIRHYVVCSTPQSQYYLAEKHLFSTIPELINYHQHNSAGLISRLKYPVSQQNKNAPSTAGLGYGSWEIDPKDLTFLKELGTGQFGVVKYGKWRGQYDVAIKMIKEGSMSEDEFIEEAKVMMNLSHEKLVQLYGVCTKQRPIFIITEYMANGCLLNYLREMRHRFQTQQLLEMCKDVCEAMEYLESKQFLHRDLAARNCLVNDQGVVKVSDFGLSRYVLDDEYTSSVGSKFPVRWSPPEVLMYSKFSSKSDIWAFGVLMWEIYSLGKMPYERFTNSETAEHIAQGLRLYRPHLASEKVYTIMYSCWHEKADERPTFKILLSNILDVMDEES

DC50, < 100 nM:
Cc1cc(-c2ncnn3cc(-c4ccc(CN5CCC(c6ccc(NC7CCC(=O)NC7=O)cc6)CC5)cc4)cc23)ccc1CNC(=O)c1ccc(C(F)F)cc1 (centres unmarked) [Example 61, 4-(difluoromethyl)-N-[[4-[6-[4-[[4-[4-[(2,6-dioxo-3-piperidyl)amino]phenyl]-1-piperidyl]methyl]phenyl]pyrrolo[2,1-f][1,2,4]triazin-4-yl]-2-methyl-phenyl]methyl]benzamide]
Cc1cc(-c2ncnn3cc(-c4ccc(CN5CCC(c6c(F)cc(C7CCC(=O)NC7=O)cc6F)CC5)cc4)cc23)ccc1CNC(=O)c1noc(C(C)(C)C)n1 (centres unmarked) [Example 10, 5-tert-butyl-N-[[4-[6-[4-[[4-[4-(2,6-dioxo-3-piperidyl)-2,6-difluoro-phenyl]-1-piperidyl]methyl]phenyl]pyrrolo[2,1-f][1,2,4]triazin-4-yl]-2-methyl-phenyl]methyl]-1,2,4-oxadiazole-3-carboxamide]
CN(CCn1ccc(NC2CCC(=O)NC2=O)n1)Cc1ccc(-c2cc3c(-c4ccc(CNC(=O)c5noc(C(C)(C)C)n5)c(F)c4)ncnn3c2)cc1F (centres unmarked) [Example 34, 5-tert-butyl-N-[[4-[6-[4-[[2-[3-[(2,6-dioxo-3-piperidyl)amino]pyrazol-1-yl]ethyl-methyl-amino]methyl]-3-fluoro-phenyl]pyrrolo[2,1-f][1,2,4]triazin-4-yl]-2-fluoro-phenyl]methyl]-1,2,4-oxadiazole-3-carboxamide]
Cc1cc(-c2ncnn3cc(OC[C@@H](F)CN4CCC(c5ccc6c(N7CCC(=O)NC7=O)nn(C)c6c5)CC4)cc23)ccc1CNC(=O)c1noc(C(C)(C)C)n1 [Example 295, (S)-5-(tert-butyl)-N-(4-(6-(3-(4-(3-(2,4-dioxotetrahydropyrimidin-1(2H)-yl)-1-methyl-1H-indazol-6-yl)piperidin-1-yl)-2-fluoropropoxy)pyrrolo[2,1-f][1,2,4]triazin-4-yl)-2-methylbenzyl)-1,2,4-oxadiazole-3-carboxamide]
Cc1cc(-c2ncnn3cc(CC[C@@H](F)CN4CCC(c5ccc(C6CCC(=O)NC6=O)cc5)CC4)cc23)ccc1CNC(=O)c1noc(C(C)(C)C)n1 (single isomer, unassigned) [Example 286]
Cc1cc(-c2ncnn3cc(-c4ccc(C(=O)NC5CCc6cc(NC7CCC(=O)NC7=O)ccc6C5)cc4)cc23)ccc1CNC(=O)c1noc(C(C)(C)C)n1 (centres unmarked) [Example 197, 5-(tert-butyl)-N-(4-(6-(4-((6-((2,6-dioxopiperidin-3-yl)amino)-1,2,3,4-tetrahydronaphthalen-2-yl)carbamoyl)phenyl)pyrrolo[2,1-f][1,2,4]triazin-4-yl)-2-methylbenzyl)-1,2,4-oxadiazole-3-carboxamide]
Cc1cc(-c2ncnn3cc(N4CCN(C(=O)CC5CC6(CO5)CN(C(=O)c5ccc(OC7CCC(=O)NC7=O)cc5)C6)CC4)cc23)ccc1CNC(=O)c1noc(C(C)(C)C)n1 (centres unmarked) [Example 190, 5-(tert-butyl)-N-(4-(6-(4-(2-(2-(4-((2,6-dioxopiperidin-3-yl)oxy)benzoyl)-6-oxa-2-azaspiro[3.4]octan-7-yl)acetyl)piperazin-1-yl)pyrrolo[2,1-f][1,2,4]triazin-4-yl)-2-methylbenzyl)-1,2,4-oxadiazole-3-carboxamide]
Cc1cc(-c2ncnn3cc(-c4ccc(CN(C)CCCc5ccc(NC6CCC(=O)NC6=O)cc5)cc4)cc23)ccc1CNC(=O)c1noc(C(C)(C)C)n1 (centres unmarked) [Example 11, 5-tert-butyl-N-[[4-[6-[4-[[3-[4-[(2,6-dioxo-3-piperidyl)amino]phenyl]propyl-methyl-amino]methyl]phenyl]pyrrolo[2,1-f][1,2,4]triazin-4-yl]-2-methyl-phenyl]methyl]-1,2,4-oxadiazole-3-carboxamide]
